Entries after “also recorded” stand apart in the source; their conditions may differ. Where a name gives a salt, the structure may show the parent alone.
How the values were obtained:
[1] = tested on: THP1-ISG cells; experiment: THP1-ISG cell viability assay (ATP activity and LDH release); conditions: 10 μM, 1.0 μM and 0.1 μM; 24 hours
[2] = In vivo tolerability and body weight with TKI and ceDNA; design: species or system mice
Protocol: The immunosuppressant selected for initial in vivo cytokine/chemokine panel assays were afatinib, brigatinib, dacomitinib, dasatinib, saracatinib, fostamatinib, cerdulatinib, ruxolitinib, and cobimetinib. […] The high and low dose concentrations immunosuppressants are as follows: afatinib (H: 200 mg/kg/day; L: 25 mg/kg/day), brigatinib (H: 50 mg/kg/day; L: 10 mg/kg/day), dacomitinib (H: 30 mg/kg/day; L: 10 mg/kg/day), dasatinib (H: 30 mg/kg/day; L: 10 mg/kg/day), saracatinib (H: 50 mg/kg/day; L: 10 mg/kg/day), fostamatinib (H: 500 mg/kg/day; L: 100 mg/kg/day), cerdulatinib (H: 30 mg/kg/day; L: 5 mg/kg/day), ruxolitinib (H: 300 mg/kg/day; L: 60 mg/kg/day) and cobimetinib (H: 10 mg/kg/day; L: 3 mg/kg/day). Formulations were mixed by pipetting prior to administration to distribute particulates of oral gavage suspension. TKI or vehicle for Groups 3-24 were dosed on Days -2, -1, 0 and 1 by oral gavage at 10 mL/kg. TKI for Group 25 were dosed on Days -2, -1, 0 and 1 by oral gavage at 20 mL/kg. TKI for Group 26 was dosed on Days -2, -1, 0 and 1 by intraperitoneal (IP) administration at 20 mL/kg. […] Otherwise, TKIs were administered at approximately the same time each day ([…] dosed at 0.2 mg/kg on Day 0 for all experimental groups by intravenous administration via lateral tail vein. […] Polycytidylic acid potassium salt (PolyC) and […] […] Body weights for all animal were recorded.

[3] = tested on: IRF-inducible luciferase reporter in RAW-ISG cells; experiment: IFN reporter assay in RAW-ISG cells; type: cell-based, murine; conditions: for inhibitory effects on murine ISG system / induction of IRF: 0.1 μM, 1.0 μM and 10 μM, ceDNA
Protocol: Finally, IFN reporter assays were conducted in RAW-ISG cells. RAW-ISG cells are generated from the murine macrophage cell line by stable integration of an interferon regulatory factor (IRF)-inducible luciferase reporter construct. […] Another potent TKI compound selected for this assay was BMS-986165 which is a known antagonist of TYK2.

[4] = tested on: serum proinflammatory cytokines and chemokines in response to ceDNA; experiment: In vivo cytokine/chemokine panel after ceDNA (Construct A) dosing; design: species or system mice; conditions: for serum IP-10 level: repeat experiment; for cytokines expression after ceDNA dosing: LNP: Construct A at 0.2 mg/Kg
Protocol: The immunosuppressant selected for initial in vivo cytokine/chemokine panel assays were afatinib, brigatinib, dacomitinib, dasatinib, saracatinib, fostamatinib, cerdulatinib, ruxolitinib, and cobimetinib. […] The high and low dose concentrations immunosuppressants are as follows: afatinib (H: 200 mg/kg/day; L: 25 mg/kg/day), brigatinib (H: 50 mg/kg/day; L: 10 mg/kg/day), dacomitinib (H: 30 mg/kg/day; L: 10 mg/kg/day), dasatinib (H: 30 mg/kg/day; L: 10 mg/kg/day), saracatinib (H: 50 mg/kg/day; L: 10 mg/kg/day), fostamatinib (H: 500 mg/kg/day; L: 100 mg/kg/day), cerdulatinib (H: 30 mg/kg/day; L: 5 mg/kg/day), ruxolitinib (H: 300 mg/kg/day; L: 60 mg/kg/day) and cobimetinib (H: 10 mg/kg/day; L: 3 mg/kg/day). Formulations were mixed by pipetting prior to administration to distribute particulates of oral gavage suspension. TKI or vehicle for Groups 3-24 were dosed on Days -2, -1, 0 and 1 by oral gavage at 10 mL/kg. TKI for Group 25 were dosed on Days -2, -1, 0 and 1 by oral gavage at 20 mL/kg. TKI for Group 26 was dosed on Days -2, -1, 0 and 1 by intraperitoneal (IP) administration at 20 mL/kg. […] Otherwise, TKIs were administered at approximately the same time each day ([…] dosed at 0.2 mg/kg on Day 0 for all experimental groups by intravenous administration via lateral tail vein. Animals were monitored continuously while under anesthesia, during recovery and until mobile. […] Polycytidylic acid potassium salt (PolyC) and […] (Construct A) were used as controls. […] Body weights for all animal were recorded.

[5] = tested on: luciferase expression of ceDNA (Construct A); experiment: In-life imaging (IVIS) of ceDNA luciferase expression; type: in vivo, mice; conditions: day 6; compared among TKI groups
Protocol: Expression levels of ceDNA as detected by luciferase (IVIS for luciferase) was measured at day 6, 14, 21, 28, and 35 in all groups (FIG. 8). Polycytidylic acid potassium salt (PolyC) and […] ceDNA (Construct A) were used as controls. Both polyC and Construct A were formulated in LNP and used as controls for in groups in which no ceDNA was dosed to evaluate the effect of LNPs. Body weights for all animal were recorded.

[6] = tested on: immune response to ceDNA (Construct A: hAAT-Luciferase); experiment: ceDNA dose escalation study with TKI; type: in vivo; conditions: 2 mg/kg ceDNA formulated in LNP; ruxolitinib 300 mg/kg
Protocol: An in vivo study with dose escalation of ceDNA was conducted to evaluate the effect of ceDNA at a high dose in the presence of the TKI (ruxolitinib at a high dose of 300 mg/kg and fostamatinib at a high dose of 500 mg/kg). In this study, four experimental groups were dosed with increasing doses of 0.2 mg/kg, 0.5 mg/kg, 1 mg/kg, or 2 mg/kg of ceDNA (Construct A: hAAT-Luciferase) formulated in LNPs.

[7] = tested on: immune response to ceDNA; type: in vivo, mice; conditions: −0.5 h and 5 h regimen compared to −48 hr, −24 h, −1.5 h and 24 h regimen; 300 mg/kg
From the text: FIG. 14 depicts two different dosing time arrangements of TKI treatment. […]. […]

[8] = 0.2 mg/kg ceDNA, blood 6 hours post dose
[9] = high dose of TKI with Construct A:LNP vehicle

Cl.Cn1cc(-c2nc(N[C@@H]3CCCC[C@@H]3N)c(F)c3c2C(=O)NC3)cn1 [TAK-659]
toxicity in vitro (ATP activity) [1]: mostly non-toxic

CN(C)C/C=C/C(=O)Nc1cc2c(Nc3ccc(F)c(Cl)c3)ncnc2cc1O[C@H]1CCOC1 [afatinib, Afatinib/ Afatinib Dimaleate]
body loss ([2]; with ceDNA, particularly at a high dose): 7-8%

[2H]C([2H])([2H])NC(=O)c1nnc(NC(=O)C2CC2)cc1Nc1cccc(-c2ncn(C)n2)c1OC [BMS-986165, BMS986165 Tyk2-IN-4]
inhibitory effects, ranking among more than 30 compounds tested [3]: most significant inhibitory effects
inhibitory effects on murine ISG system / induction of IRF [3]: significant inhibitory effects

CNC(=O)c1cc(Oc2ccc(NC(=O)Nc3ccc(Cl)c(C(F)(F)F)c3)cc2)ccn1 [sorafinib, Sorafenib]
toxicity in vitro (ATP activity) [1]: mostly non-toxic

c1cn2cc(-c3ccc4cn[nH]c4c3)nc(Nc3ccc(N4CCOCC4)cc3)c2n1 [entoplestinib, Entosplestinib]
toxicity in vitro (ATP activity) [1]: mostly non-toxic

N#CC[C@H](C1CCCC1)n1cc(-c2ncnc3[nH]ccc23)cn1 [ruxolitinib, Ruxolitinib/ Ruxolitinib phosphate/ S-ruxolitinib]
inhibitory effects, ranking among more than 30 compounds tested [3]: most significant inhibitory effects
inhibitory effects on murine ISG system / induction of IRF [3]: significant inhibitory effects
serum MCP-1 level ([4]; 0.2 mg/kg ceDNA): significant reduction
serum MIP-1α (CCL3) level ([4]; 0.2 mg/kg ceDNA): significant reduction
serum MIP-1β (CCL4) level ([4]; 0.2 mg/kg ceDNA): significant reduction
serum Rantes (CCL5) level ([4]; 0.2 mg/kg ceDNA): significant reduction
suppressing cytokines and chemokine levels ([4]; 0.2 mg/kg ceDNA): stood out
type I and type II IFNs responses ([4]; 0.2 mg/kg ceDNA): effectively attenuated
serum interferon-α (IFN-α) level [4, 8]: significant reductions; also recorded: successfully exerted immunosuppressive effects
serum interferon-γ (IFN-γ) level [4, 8]: significant reductions; also recorded: successfully exerted immunosuppressive effects
serum interleukin-6 (IL-6) level [4, 8]: significant reductions; also recorded: successfully exerted immunosuppressive effects
serum interleukin-18 (IL-18) level [4, 8]: significant reductions; also recorded: successfully exerted immunosuppressive effects
serum level [4, 8]: significant reductions
serum tumor necrosis factor-α (TNF-α) level [4, 8]: significant reductions; also recorded: successfully exerted immunosuppressive effects
serum IP-10 level ([4]; 0.2 mg/kg ceDNA): successfully exerted immunosuppressive effects
cytokines expression after ceDNA dosing [4]: drastically reduce
serum IFN-α level [4, 9]: no detectable
serum IFN-γ level [4, 9]: no detectable
serum IL-6 level [4, 9]: no detectable
body weight change ([2]; TKI with 0.2 mg/kg ceDNA): a certain level of weight gains
ceDNA transgene expression levels [5]: highest level
tolerability [6]: well tolerated
immunosuppression [7]: improved immunosuppression

CCN(CC)CCNC(=O)c1c(C)[nH]c(/C=C2\C(=O)Nc3ccc(F)cc32)c1C [sunitinib, Sunitinib]
toxicity in vitro (ATP activity) [1]: mostly non-toxic

Cc1ccc(NC(=O)c2ccc(CN3CCN(C)CC3)cc2)cc1Nc1nccc(-c2cccnc2)n1 [imatinib, Imatinib/ Imatinib mesylate]
toxicity in vitro (ATP activity) [1]: mostly non-toxic

COc1cc(Nc2ncc(F)c(Nc3ccc4c(n3)N(COP(=O)(O)O)C(=O)C(C)(C)O4)n2)cc(OC)c1OC [fostamatinib, Fostamatinib/ Fostamatinib disodium]
inhibitory effects, ranking among more than 30 compounds tested [3]: most significant inhibitory effects
inhibitory effects on murine ISG system / induction of IRF [3]: significant inhibitory effects
suppressing cytokines and chemokine levels ([4]; 0.2 mg/kg ceDNA): stood out
type I and type II IFNs responses ([4]; 0.2 mg/kg ceDNA): effectively attenuated
serum interferon-α (IFN-α) level [4, 8]: successfully exerted immunosuppressive effects
serum interferon-γ (IFN-γ) level [4, 8]: successfully exerted immunosuppressive effects
serum interleukin-6 (IL-6) level [4, 8]: successfully exerted immunosuppressive effects
serum interleukin-18 (IL-18) level [4, 8]: successfully exerted immunosuppressive effects
serum tumor necrosis factor-α (TNF-α) level [4, 8]: successfully exerted immunosuppressive effects
serum IP-10 level ([4]; 0.2 mg/kg ceDNA): successfully exerted immunosuppressive effects
cytokines expression after ceDNA dosing [4]: drastically reduce
